Consider one compound from paper PMC6714936 (Clinical and Applied Thrombosis/Hemostasis, 2019).

The target in the assay is factor Xa (Bos taurus, UniProt P00743). The assay can be described thus: kinetic amidolytic. It counts as biochemical.
Chain of factor Xa (P00743 41-180): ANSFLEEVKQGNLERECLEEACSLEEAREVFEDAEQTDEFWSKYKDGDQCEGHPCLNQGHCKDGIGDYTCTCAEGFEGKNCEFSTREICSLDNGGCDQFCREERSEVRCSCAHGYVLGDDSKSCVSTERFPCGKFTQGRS
Chain of factor Xa (P00743 234-492): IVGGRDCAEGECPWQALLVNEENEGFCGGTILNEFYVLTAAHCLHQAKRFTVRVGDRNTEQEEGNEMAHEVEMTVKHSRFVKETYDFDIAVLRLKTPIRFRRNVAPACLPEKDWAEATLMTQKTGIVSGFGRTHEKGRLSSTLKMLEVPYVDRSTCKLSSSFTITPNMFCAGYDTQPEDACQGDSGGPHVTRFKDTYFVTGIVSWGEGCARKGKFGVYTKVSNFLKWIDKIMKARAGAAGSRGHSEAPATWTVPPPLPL

On to `COc1ccc(NC(=O)c2ccc(C(=N)N(C)C)cc2)c(C(=O)Nc2ccc(Cl)cn2)c1` [Betrixaban], for which the IC50 was 2880 nM.

The IC50 is the point on the concentration scale where inhibition reaches its midpoint. Read a high IC50 as weaker potency in that assay.
